The values that follow come from PMC5613016, “GRL-09510, a Unique P2-Crown-Tetrahydrofuranylurethane -Containing HIV-1 Protease Inhibitor, Maintains Its Favorable Antiviral Activity against Highly-Drug-Resistant HIV-1 Variants in vitro” (Scientific Reports, 2017).

The subject of data set [1] is HIV-1NL4-3. In words: In vitro selection of resistant HIV-1 variants in MT-4 cells. In kind it is cell-based. As to conditions: HIV-1NL4-3 in MT-4 cells, increasing concentrations. The text has this:
MT-4 cells (10^5/ml) were exposed to HIV-1NL4-3 (500 TCID50) and cultured in the presence of compounds at an initial concentration of its EC50 value. Viral replication was monitored by the determination of the amount of p24 produced by MT-4 cells. The supernatants were harvested on day 7 and were used to infect fresh MT-4 cells for the next round of culture in the presence of increasing concentrations of each compound. Proviral DNAs obtained from the lysates of infected cells were subjected to sequencing. This selection procedure was carried out until the drug concentration reached 5 μM as previously described[20]–[22]).

The next data set relates to HIV-1LAI. In words: microbe, parasite or virus in culture. The data set is classed as cell-based. Particulars: Human immunodeficiency virus 1, MT2, MT-2 cells, 100 TCID50, MTT assay; read-out: EC50 Against HIV-1LAI. On the procedure:
(§1) The susceptibility of HIV-1LAI or HIV-2ROD to various compounds was determined as previously described[20]–[22]. Briefly, MT-2 cells (10^4/ml) were exposed to 100 TCID50 of HIV-1LAI or HIV-2ROD in the presence or absence of various concentrations of compounds in 96-well plates and were incubated at 37 °C for 7 days. After incubation, 100 μl of the medium was removed from each well, 3-(4,5-dimetylthiazol-2-yl)-2,5-diphenyltetrazolium bromide (MTT) solution (10 μl, 7.5 mg/ml in PBS) was added to each well, followed by incubation at 37 °C for 2 h. […] To determine the sensitivity of clinically isolated HIV-1s to compounds, PHA-PBMC (10^6/ml) were exposed to 50 TCID50 of each HIV-1 and cultured in the presence or absence of various concentrations of compounds in 10-fold serial dilutions in 96-well plates. In determining the drug-susceptibility of certain laboratory HIV-1 strains, MT-4 cells were employed as target cells as previously described[23],[24]. MT-4 cells (10^5/ml) were exposed to 100 TCID50 of drug-resistant HIV-1s in the presence or absence of various concentrations of compounds and were incubated at 37 °C. On day 7, the supernatants were harvested and the amounts of p24 were determined by using a fully-automated chemiluminescent enzyme immunoassay system (Lumipulse f: Fujirebio, Tokyo)[35]–[37]. […] All assays were performed in duplicate, and EC50 shown in this report represent average values of two to four independent experiments. PHA-PBMCs were derived from a single donor in each independent experiment. The research protocols described in the present study were carried out in accordance with relevant guidelines and regulations, and were approved in Ethics Committee for Epidemiological and General Research at the Faculty of Life Sciences, Kumamoto University.

In another data set the test system is HIV-2ROD. In words: microbe, parasite or virus in culture. Particulars: Human immunodeficiency virus 2, MT2, MT-2 cells, 100 TCID50, MTT assay; read-out: EC50 Against HIV-2ROD. In kind it is cell-based. On the procedure:
as §1

The test system of the next data set is HIV-1_9510 ^R 36P. In words: p24 production inhibition in MT-4 cells. The data set is classed as cell-based. Particulars: for EC50: Human immunodeficiency virus 1, MT4, read-out: EC50 HIV-19510RP36. On the procedure: as §1
The test system of a further data set is HIV-1APV ^R 5μM. In words: p24 production inhibition in MT-4 cells. In kind it is cell-based. As to conditions: Human immunodeficiency virus 1, MT4, read-out: EC50 HIV-1APV ^R 5μM, MT-4 cells, p24 Gag production. On the procedure: as §1
Another data set has as its system HIV-1ATV ^R 5μM. In words: p24 production inhibition in MT-4 cells. The data set is classed as cell-based. Particulars: Human immunodeficiency virus 1, MT4, read-out: EC50 HIV-1ATV ^R 5μM, MT-4 cells, p24 Gag production. On the procedure: as §1
Another data set relates to HIV-1LPV ^R 5μM. The experiment in a line: p24 production inhibition in MT-4 cells. In kind it is cell-based. As to conditions: Human immunodeficiency virus 1, MT4, read-out: EC50 HIV-1LPV ^R 5μM, MT-4 cells, p24 Gag production. On the procedure: as §1
The subject of data set [2] is HIV-1NL4-3. In words: p24 production inhibition in MT-4 cells. In kind it is cell-based. Particulars: Human immunodeficiency virus 1, MT4, MT-4 cells, p24 Gag production. On the procedure: as §1
In data set [3] the test system is HIV-192UG029 (subtype A, X4). In words: p24 production inhibition in PHA-PBMC. As to conditions: Human immunodeficiency virus 1, read-out: EC50 HIV-192UG029 (subtype A, X4). In kind it is cell-based, HIV-1. On the procedure:
as §1

The test system of data set [4] is HIV-1ERS104pre (wild-type). In words: p24 production inhibition in PHA-PBMC. The data set is classed as cell-based. Particulars: Human immunodeficiency virus 1, PHA-PBMC, p24 Gag production. On the procedure:
as §1

A further data set concerns HIV-1BaL (subtype B, R5). The experiment in a line: p24 production inhibition in PHA-PBMC. In kind it is cell-based. As to conditions: Human immunodeficiency virus 1, PHA-PBMC, p24 Gag production. On the procedure: as §1
The test system of another data set is HIV-1MDRmix DRV ^R 20P. In words: p24 production inhibition in PHA-PBMC. In kind it is cell-based. As to conditions: Human immunodeficiency virus 1, read-out: EC50 HIV-1MDRmix DRV ^R 20P, PHA-PBMC, p24 Gag production. On the procedure: as §1
For another data set, the system named is HIV-1MDR/G. The experiment in a line: p24 production inhibition in PHA-PBMC. The data set is classed as cell-based. Particulars: Human immunodeficiency virus 1, PHA-PBMC, p24 Gag production. On the procedure: as §1
For data set [5], the system named is HIV-1ME46 (subtype B, X4/R5). The experiment in a line: p24 production inhibition in PHA-PBMC. As to conditions: Human immunodeficiency virus 1, PHA-PBMC, p24 Gag production. The data set is classed as cell-based. On the procedure:
as §1

A short description of data set [6]: Cytotoxicity against MT-2 cells (MTT assay). In kind it is cell-based. As to conditions: human. On the procedure: as §1
On the technique in general: Tetrazolium dyes change colour on reduction, which living cells bring about.

For the next data set, the system named is HIV-1MDR/C. In words: p24 production inhibition in PHA-PBMC. The data set is classed as cell-based. As to conditions: Human immunodeficiency virus 1, PHA-PBMC, p24 Gag production. On the procedure: as §1
In a further data set the test system is HIV-1MDR/TM. The experiment in a line: p24 production inhibition in PHA-PBMC. In kind it is cell-based. Particulars: Human immunodeficiency virus 1, PHA-PBMC, p24 Gag production. On the procedure:
as §1

The subject of the next data set is HIV-1MDR/B. In words: p24 production inhibition in PHA-PBMC. The data set is classed as cell-based. As to conditions: Human immunodeficiency virus 1, PHA-PBMC, p24 Gag production. On the procedure:
as §1

Where only a bound is given, the exact number is not on record here.

For `Cc1nnc(C(=O)NC(C)(C)c2nc(C(=O)NCc3ccc(F)cc3)c(O)c(=O)n2C)o1` [RAL, Raltegravir], the “passage at which selection concentration reached 5 µM” value in the data set with HIV-1NL4-3 [1] is not below 20.

One may read the EC50 as the concentration at which the effect is half-maximal. By CC50 is commonly meant the concentration giving 50% cytotoxicity. As to `CC(C)CN(C[C@@H](O)[C@H](Cc1ccccc1)NC(=O)O[C@H]1CO[C@H]2OCC[C@H]21)S(=O)(=O)c1ccc(N)cc1` [DRV, Darunavir], the 50% effective concentration (EC50) in the data set with HIV-1LAI stood at 5 ± 2 nM; with HIV-2ROD, 14 ± 7 nM; with HIV-1_9510 ^R 36P it was 41 ± 1 nM; in the data set on HIV-1APV ^R 5μM, 410 ± 10 nM; with HIV-1ATV ^R 5μM, 24 ± 60 nM; with HIV-1LPV ^R 5μM, 34 ± 5 nM. The EC50 in the data set on HIV-1NL4-3 [2] (Table 3) is 4.5 ± 0.4 nM; in data set [3] it was 5.5 ± 0.1 nM; in [4] it was 4.4 ± 0.9 nM; in the data set with HIV-1BaL (subtype B, R5), 1.8 ± 0.1 nM; in the data set on HIV-1MDRmix DRV ^R 20P, 300 ± 60 nM; in the data set on HIV-1MDR/G, 20 ± 9 nM. The molecule also came in with an EC50 in data set [5] of 2.3 ± 0.4 nM. In addition, it took 101000 ± 8800 nM to reach half-maximal cytotoxicity in [6] (CC50 at 7 days).

For the molecule `Cc1cccc(C)c1OCC(=O)N[C@@H](Cc1ccccc1)[C@@H](O)C[C@H](Cc1ccccc1)NC(=O)[C@H](C(C)C)N1CCCNC1=O` [LPV, Lopinavir], the EC50 was 23 ± 3 nM in the data set with HIV-1LAI; 21 ± 7 nM in the data set on HIV-2ROD; 400 ± 20 nM in the data set with HIV-1_9510 ^R 36P; 400 ± 10 nM with HIV-1APV ^R 5μM; more than 1000 nM in the data set with HIV-1ATV ^R 5μM; more than 1000 nM with HIV-1LPV ^R 5μM. Also, the EC50 in data set [4] is 28 ± 2 nM; in the data set on HIV-1MDR/C, 390 ± 50 nM; in the data set with HIV-1MDR/TM, 550 ± 90 nM; with HIV-1MDR/B, more than 1000 nM; with HIV-1MDRmix DRV ^R 20P it was more than 1000 nM; with HIV-1MDR/G it was 180 ± 20 nM. In data set [6], this molecule returned a CC50 of 26700 ± 4200 nM.

With `CC(C)(C)NC(=O)[C@@H]1C[C@@H]2CCCC[C@@H]2CN1C[C@@H](O)[C@H](Cc1ccccc1)NC(=O)[C@H](CC(N)=O)NC(=O)c1ccc2ccccc2n1` [SQV, saquinavir], the EC50 turned out to be 41 ± 9 nM in the data set with HIV-1_9510 ^R 36P and 18 ± 1 nM in the data set with HIV-1NL4-3 [2] (Supplemental Table 3). The “fold change of EC50 HIV-19510RP36” value in the data set with HIV-1_9510 ^R 36P (compared to EC50 for HIV-1NL4-3, Supplemental Table 3) is listed as 2.
